Where “and” joins values, the source holds several entries; their conditions need not be identical. Equal entries are not always repeated. Toxic doses and inconclusive results are not listed. No stated cut-off is given here; in the data, active means T/C of 150% or more; inactive means T/C below 125%. Peptide text beside a SMILES is read from it.
Test system: L1210 leukemia ip in BDF1 mice, survival T/C
Assay: NCI In Vivo Anticancer Drug Screen. Data for tumor model L1210 Leukemia (intraperitoneal) in B6D2F1 (BDF1) mice
Conditions: endpoint: mean survival time, higher = longer survival
Procedure, shortened: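 Value reflects the ratio of survival in compound-treated mice to survival in vehicle-treated controls, with both groups carrying the same transplanted tumor.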

[1] = dose: 100.0 mg/kg/injection, schedule: Q04DX003 (ip), vehicle: Klucel (hydroxypropylcellulose) (HPC)
[2] = dose: 200.0 mg/kg/injection, schedule: Q04DX003 (ip), vehicle: Klucel (hydroxypropylcellulose) (HPC)
[3] = dose: 400.0 mg/kg/injection, schedule: Q04DX003 (ip), vehicle: Klucel (hydroxypropylcellulose) (HPC)
[4] = dose: 100.0 mg/kg/injection, schedule: Q04DX003 (ip), vehicle: saline with Tween-80
[5] = dose: 200.0 mg/kg/injection, schedule: Q04DX003 (ip), vehicle: saline with Tween-80
[6] = dose: 400.0 mg/kg/injection, schedule: Q04DX003 (ip), vehicle: saline with Tween-80
[7] = dose: 100.0 mg/kg/injection, schedule: Q04DX003 (ip), vehicle: saline
[8] = dose: 200.0 mg/kg/injection, schedule: Q04DX003 (ip), vehicle: saline
[9] = dose: 400.0 mg/kg/injection, schedule: Q04DX003 (ip), vehicle: saline
[10] = dose: 100.0 mg/kg/injection, schedule: Q01DX001 (ip), vehicle: steriod suspending solution
[11] = dose: 100.0 mg/kg/injection, schedule: Q04DX002 (ip), vehicle: Klucel (hydroxypropylcellulose) (HPC)
[12] = dose: 200.0 mg/kg/injection, schedule: Q04DX002 (ip), vehicle: Klucel (hydroxypropylcellulose) (HPC)
[13] = dose: 400.0 mg/kg/injection, schedule: Q04DX002 (ip), vehicle: Klucel (hydroxypropylcellulose) (HPC)
[14] = dose: 50.0 mg/kg/injection, schedule: Q01DX009 (ip), vehicle: Klucel (hydroxypropylcellulose) (HPC)

Measured: T/C

O=S(=O)(c1ccccc1)N1CCCCC1
inactive: [1] 100 % of control | [2] 97 % of control | [3] 100 % of control

NC(=O)NC(=O)c1nccnc1C(=O)O
inactive: dose: 100.0 mg/kg/injection, schedule: Q01DX001 (ip), vehicle: water 88 % of control | dose: 200.0 mg/kg/injection, schedule: Q01DX001 (ip), vehicle: water 101 % of control | dose: 400.0 mg/kg/injection, schedule: Q01DX001 (ip), vehicle: water 87 % of control

CCOC(=O)C1CCN(C(=O)c2ccccc2)c2scc(-c3ccccc3)c2C1=O (configuration not stated)
inactive: dose: 50.0 mg/kg/injection, schedule: Q04DX003 (ip), vehicle: saline with Tween-80 94 % of control | [4] 100 % of control | [5] 92 % of control | [6] 97 % of control

O=C(O)C1C2C=CCC1CC2 (configuration not stated)
inactive: dose: 100.0 mg/kg/injection, schedule: Q04DX003 (ip), vehicle: alcohol 100 % of control | dose: 200.0 mg/kg/injection, schedule: Q04DX003 (ip), vehicle: alcohol 103 % of control | dose: 400.0 mg/kg/injection, schedule: Q04DX003 (ip), vehicle: alcohol 100 % of control

C=CC(C)C1CCC2(C)C3=C(C(=O)CC12C)C1(C)CCC(OC(C)=O)C(C)(C)C1=C(OC(C)=O)C3=O (configuration not stated)
inactive: [4] 91 % of control | [5] 91 % of control | [6] 87 % of control

O=C(O)C1CC=CCC1c1c2ccc(=O)cc-2oc2cc(O)ccc12 (configuration not stated)
inactive: [7] 98 % of control | [8] 94 % of control | [9] 91 % of control

CCC(c1ccc2cc(OC)ccc2c1)C(C)(C)C(=O)F (configuration not stated)
inactive: dose: 25.0 mg/kg/injection, schedule: Q01DX009 (ip), vehicle: saline 94 % of control | dose: 31.3 mg/kg/injection, schedule: Q01DX Z (sc), vehicle: steriod suspending solution 107 % of control | dose: 50.0 mg/kg/injection, schedule: Q01DX001 (ip), vehicle: steriod suspending solution 98 % of control | dose: 50.0 mg/kg/injection, schedule: Q01DX009 (ip), vehicle: saline 100 % of control | dose: 62.5 mg/kg/injection, schedule: Q01DX Z (sc), vehicle: steriod suspending solution 110 % of control | [10] 96 % of control | dose: 100.0 mg/kg/injection, schedule: Q04DX003 (ip), vehicle: acetone 94 % of control | dose: 125.0 mg/kg/injection, schedule: Q01DX Z (sc), vehicle: steriod suspending solution 108 % of control | dose: 250.0 mg/kg/injection, schedule: Q01DX Z (sc), vehicle: steriod suspending solution 108 % of control

Cc1ccccc1N
inactive: [4] 101 % of control | [5] 103 % of control | [6] 95 % of control

COc1ccc(-n2cccc2)cc1
inactive: [10] 95 % of control | [11] 90 % of control | dose: 200.0 mg/kg/injection, schedule: Q01DX001 (ip), vehicle: steriod suspending solution 100 % of control | [12] 90 % of control | dose: 400.0 mg/kg/injection, schedule: Q01DX001 (ip), vehicle: steriod suspending solution 106 % of control | [13] 94 % of control

CC(C(=O)NN)C(C)(C)O (configuration not stated)
inactive: [11] 97 % of control | [12] 94 % of control | [13] 101 % of control

CCCCCCCCCCCCCC(=O)[O][Sn]([CH2]CCC)([CH2]CCC)[O]C(=O)CCCCCCCCCCCCC
inactive: dose: 0.78 mg/kg/injection, schedule: Q04DX003 (ip), vehicle: other 95 % of control | dose: 1.56 mg/kg/injection, schedule: Q04DX003 (ip), vehicle: other 98 % of control | dose: 3.13 mg/kg/injection, schedule: Q04DX003 (ip), vehicle: other 96 % of control | dose: 6.25 mg/kg/injection, schedule: Q04DX003 (ip), vehicle: other 109 % of control | dose: 12.5 mg/kg/injection, schedule: Q04DX003 (ip), vehicle: other 101 % of control

COC(OC)c1nc(SC)[nH]c(=O)c1C
inactive: dose: 100.0 mg/kg/injection, schedule: Q01DX009 (ip), vehicle: saline with Tween-80 88 % of control | [4] 105 % of control | dose: 200.0 mg/kg/injection, schedule: Q01DX009 (ip), vehicle: saline with Tween-80 89 % of control | [5] 116 % of control | dose: 400.0 mg/kg/injection, schedule: Q01DX009 (ip), vehicle: saline with Tween-80 88 % of control | [6] 112 % of control

NC(N)=Nc1ncnc2nncnc12
inactive: dose: 9.5 mg/kg/injection, schedule: Q01DX001 (ip), vehicle: other 102 % of control | dose: 19.0 mg/kg/injection, schedule: Q01DX001 (ip), vehicle: other 102 % of control | dose: 38.0 mg/kg/injection, schedule: Q01DX001 (ip), vehicle: other 102 % of control

Cc1cc(Cl)c(Cl)cc1NC(=O)c1ccccc1Cl
inactive: [11] 97 % of control | [12] 97 % of control | [13] 94 % of control

COc1ccc([N+](=O)[O-])cc1NC(=O)Nc1c(C)n(C)n(-c2ccccc2)c1=O
inactive: [14] 108 % of control | dose: 100.0 mg/kg/injection, schedule: Q01DX009 (ip), vehicle: Klucel (hydroxypropylcellulose) (HPC) 105 % of control | dose: 200.0 mg/kg/injection, schedule: Q01DX009 (ip), vehicle: Klucel (hydroxypropylcellulose) (HPC) 97 % of control

COC(=O)N1C=C2C(C)=CC1C(C#N)(C#N)C2(C#N)C#N (configuration not stated)
inactive: dose: 10.0 mg/kg/injection, schedule: Q01DX001 (ip), vehicle: saline 105 % of control and 87 % of control | dose: 40.0 mg/kg/injection, schedule: Q01DX001 (ip), vehicle: saline 98 % of control

COc1cc2c(cc1OC)C(C(N)=O)NCC2 (configuration not stated)
inactive: dose: 100.0 mg/kg/injection, schedule: Q01DX001 (ip), vehicle: other 101 % of control | dose: 200.0 mg/kg/injection, schedule: Q01DX001 (ip), vehicle: other 97 % of control | dose: 400.0 mg/kg/injection, schedule: Q01DX001 (ip), vehicle: other 93 % of control

CC(=O)Nc1ccc(/C=N\N=C\c2ccc(NC(C)=O)cc2)cc1
inactive: dose: 100.0 mg/kg/injection, schedule: Q01DX009 (ip), vehicle: saline 88 % of control | [7] 100 % of control | dose: 200.0 mg/kg/injection, schedule: Q01DX009 (ip), vehicle: saline 86 % of control | [8] 105 % of control | [9] 100 % of control

CCNCCNc1ccc(CO)c2sc3cc(Cl)ccc3c(=O)c12
inactive: dose: 25.0 mg/kg/injection, schedule: Q01DX009 (ip), vehicle: Klucel (hydroxypropylcellulose) (HPC) 99 % of control | [14] 100 % of control

O=c1c2ccccc2ncn1C1OC(CO)C(O)C1O (configuration not stated)
inactive: dose: 100.0 mg/kg/injection, schedule: Q01DX001 (ip), vehicle: saline 96 % of control | dose: 200.0 mg/kg/injection, schedule: Q01DX001 (ip), vehicle: saline 102 % of control | dose: 400.0 mg/kg/injection, schedule: Q01DX001 (ip), vehicle: saline 104 % of control

NC1CCC(C(=O)O)NC1 (configuration not stated)
inactive: [7] 104 % of control | [8] 107 % of control | [9] 109 % of control

CC(=O)Nc1cc(F)cc(F)c1Br
inactive: dose: 100.0 mg/kg/injection, schedule: Q01DX001 (ip), vehicle: carboxymethylcellulose (CMC) 105 % of control | dose: 200.0 mg/kg/injection, schedule: Q01DX001 (ip), vehicle: carboxymethylcellulose (CMC) 102 % of control | dose: 400.0 mg/kg/injection, schedule: Q01DX001 (ip), vehicle: carboxymethylcellulose (CMC) 112 % of control

O=C(Nc1cccc(Cl)c1)SCCSC(=O)Nc1cccc(Cl)c1
inactive: dose: 100.0 mg/kg/injection, schedule: Q01DX001 (ip), vehicle: saline with Tween-80 88 % of control | [4] 98 % of control | dose: 200.0 mg/kg/injection, schedule: Q01DX001 (ip), vehicle: saline with Tween-80 93 % of control | [5] 87 % of control | [6] 88 % of control

c1ccc2ocnc2c1
inactive: [1] 94 % of control | [2] 96 % of control | [3] 113 % of control

CC(=O)NC(CO)C(=O)NCC(=O)NC(CCCN=C(N)N)C(N)=O (stereo not drawn) (Ac-Ser-Gly-Arg-NH2; configuration not given here)
inactive: dose: 25.0 mg/kg/injection, schedule: Q04DX002 (ip), vehicle: Klucel (hydroxypropylcellulose) (HPC) 100 % of control | dose: 50.0 mg/kg/injection, schedule: Q04DX002 (ip), vehicle: Klucel (hydroxypropylcellulose) (HPC) 100 % of control | [11] 100 % of control

O=C(O)c1c(-c2ccccc2)oc(-c2ccccc2)c1C(=O)O
inactive: dose: 100.0 mg/kg/injection, schedule: Q04DX002 (ip), vehicle: saline 105 % of control | dose: 200.0 mg/kg/injection, schedule: Q04DX002 (ip), vehicle: saline 94 % of control

COc1cc(NC(=O)Nc2cc([N+](=O)[O-])ccc2C)c(OC)cc1Cl
inactive: [11] 106 % of control | [12] 97 % of control | [13] 95 % of control
